# Measurements reported in EPA's ToxRefDB 2.
# How the values were obtained:
# [1] = test system: rat; settings: Sub-acute repeat dose toxicity, sprague dawley, Oral, Gavage/Intubation, dose end: 28 day, group: systemic
# [2] = test system: rat; settings: Subchronic oral toxicity in rodents, sprague dawley, Gavage/Intubation, dose end: 13 week, group: systemic
# [3] = test system: rabbit; settings: Prenatal developmental toxicity study, himalayan, Oral, Gavage/Intubation, dose end: 18 GD, group: maternal
# [4] = test system: rabbit; settings: Prenatal developmental toxicity study, himalayan, Oral, Gavage/Intubation, dose end: 18 GD
# [5] = test system: rat; settings: Chronic toxicity; sprague dawley; Oral; Gavage/Intubation; dose end: 6 month; group: systemic; systemic / clinical chemistry / phosphorus / phosphorus + systemic / clinical chemistry / potassium / potassium + systemic / organ weight / …
# [6] = test system: rabbit; settings: Prenatal developmental toxicity study; himalayan; Oral; Gavage/Intubation; dose end: 12 GD; group: maternal; systemic / in life observation / body weight / body weight gain + systemic / in life observation / food consumption / food consumption
# [7] = test system: mouse; settings: Subchronic oral toxicity in rodents, cd1, Gavage/Intubation, dose end: 13 week, group: systemic
# [8] = test system: rat; settings: Fertility (Segment I), sprague dawley, Oral, Gavage/Intubation, dose end: 6 PND
# [9] = test system: rat; settings: Prenatal developmental toxicity study, sprague dawley, Oral, Gavage/Intubation, dose end: 17 GD
# [10] = test system: dog; settings: Chronic toxicity; beagle; Oral; Gavage/Intubation; dose end: 12 month; group: systemic; systemic / hematology / erythrocyte (rbc) count differential / erythrocyte (rbc) + systemic / hematology / hematocrit (hct) / hematocrit (…
# [11] = test system: dog; settings: Chronic toxicity; beagle; Oral; Gavage/Intubation; dose end: 6 month; group: systemic; systemic / hematology / anisocytosis / anisocytosis + systemic / hematology / jolly bodies / jolly bodies + systemic / hematology / myeloid/…
# [12] = test system: dog; settings: Sub-acute repeat dose toxicity, beagle, Oral, Gavage/Intubation, dose end: 1 month, group: systemic
# [13] = systemic / clinical chemistry / creatinine / creatinine + systemic / clinical chemistry / glucose / glucose + systemic / clinical chemistry…
# [14] = systemic / clinical chemistry / creatinine / creatinine + systemic / clinical chemistry / potassium / potassium + systemic / clinical …
# [15] = systemic / clinical chemistry / phosphorus / phosphorus + systemic / clinical chemistry / potassium / potassium + systemic / clinical …
# [16] = systemic / clinical chemistry / phosphorus / phosphorus + systemic / clinical chemistry / urea nitrogen / urea nitrogen + systemic / …
# [17] = systemic / in life observation / body weight / body weight gain + systemic / in life observation / food consumption / food consumption
# [18] = systemic / in life observation / body weight / body weight gain + systemic / in life observation / food consumption / food consumption + …
# [19] = group: developmental, developmental / developmental malformation / limb / [other] + systemic / in life observation / body weight / fetal weight
# [20] = group: maternal, reproductive / reproductive performance / aborted / aborted + reproductive / reproductive performance / premature delivery / premature …
# [21] = group: maternal, systemic / in life observation / body weight / body weight gain + systemic / in life observation / food consumption / food consumption
# [22] = systemic / clinical chemistry / urea nitrogen / urea nitrogen + systemic / hematology / hemoglobin (hgb) / hemoglobin (hgb) + systemic / …
# [23] = group: maternal, reproductive / reproductive performance / estrous cycle / corpora lutea + reproductive / reproductive performance / implantations / …
# [24] = group: parental, systemic / in life observation / body weight / body weight gain + systemic / in life observation / clinical signs / fur (altered appearance…
# [25] = group: parental, systemic / in life observation / body weight / body weight gain + systemic / in life observation / food consumption / food efficiency
# [26] = group: developmental, developmental / developmental malformation / bone / delayed ossification + developmental / developmental malformation / bone / unossified
# [27] = group: maternal, systemic / in life observation / body weight / body weight gain + systemic / in life observation / food consumption / food consumption + …
# [28] = systemic / hematology / [other] / [other] + systemic / hematology / erythrocyte (rbc) count differential / erythrocyte (rbc) + systemic / …
# [29] = systemic / hematology / erythrocyte (rbc) count differential / erythrocyte (rbc) + systemic / hematology / hematocrit (hct) / hematocrit (…
compound,measurement,setting,value
CC(=O)S[C@H](C(=O)N[C@H]1Cc2ccccc2[C@H]2CCC[C@@H](C(=O)O)N2C1=O)C(C)C [Ilepatril],LOAEL,[1]; [13],> 1000 mg/kg/day
same,NOAEL,[1]; [13],≥ 1000 mg/kg/day
same,LEL,[1]; [14],30 mg/kg/day
same,NEL,[1]; [14],< 30 mg/kg/day
same,LOAEL,[2]; [15],> 1600 mg/kg/day
same,NOAEL,[2]; [15],≥ 1600 mg/kg/day
same,LEL,[2]; [16],400 mg/kg/day
same,NEL,[2]; [16],< 400 mg/kg/day
same,LEL,[3]; [17],0.8 mg/kg/day
same,LOAEL,[3]; [17],0.8 mg/kg/day
same,NEL,[3]; [18],0.32 mg/kg/day
same,NOAEL,[3]; [18],0.32 mg/kg/day
same,LEL,"[4]; group: developmental, developmental / developmental malformation / limb / [other]",3.2 mg/kg/day
same,LOAEL,[4]; [19],> 160 mg/kg/day
same,NEL,[4]; [19],1 mg/kg/day
same,NOAEL,[4]; [19],≥ 160 mg/kg/day
same,LOAEL,[4]; [20],> 160 mg/kg/day
same,NOAEL,[4]; [20],≥ 160 mg/kg/day
same,LEL,[4]; [21],1 mg/kg/day
same,NEL,[4]; [21],< 1 mg/kg/day
same,LEL,[5],10 mg/kg/day
same,LOAEL,[5],> 1000 mg/kg/day
same,NEL,[5],< 10 mg/kg/day
same,NOAEL,[5],≥ 1000 mg/kg/day
same,LEL,[6],0.8 mg/kg/day
same,LOAEL,[6],> 2 mg/kg/day
same,NEL,[6],0.32 mg/kg/day
same,NOAEL,[6],≥ 2 mg/kg/day
same,LOAEL,[7]; [14],> 1600 mg/kg/day
same,NOAEL,[7]; [14],≥ 1600 mg/kg/day
same,LEL,[7]; [22],400 mg/kg/day
same,NEL,[7]; [22],< 400 mg/kg/day
same,LEL,[8]; [23],1000 mg/kg/day
same,LOAEL,[8]; [23],> 1000 mg/kg/day
same,NEL,[8]; [23],100 mg/kg/day
same,NOAEL,[8]; [23],≥ 1000 mg/kg/day
same,LOAEL,[8]; [24],> 1000 mg/kg/day
same,NOAEL,[8]; [24],≥ 1000 mg/kg/day
same,LEL,[8]; [25],10 mg/kg/day
same,NEL,[8]; [25],< 10 mg/kg/day
same,LEL,[9]; [26],300 mg/kg/day
same,LOAEL,[9]; [26],300 mg/kg/day
same,NEL,[9]; [26],30 mg/kg/day
same,NOAEL,[9]; [26],30 mg/kg/day
same,LEL,[9]; [21],300 mg/kg/day
same,LOAEL,[9]; [21],300 mg/kg/day
same,NEL,[9]; [27],30 mg/kg/day
same,NOAEL,[9]; [27],30 mg/kg/day
same,LEL,[10],12 mg/kg/day
same,LOAEL,[10],> 12 mg/kg/day
same,NEL,[10],6 mg/kg/day
same,NOAEL,[10],≥ 12 mg/kg/day
same,LEL,[11],30 mg/kg/day
same,LOAEL,[11],> 30 mg/kg/day
same,NEL,[11],10 mg/kg/day
same,NOAEL,[11],≥ 30 mg/kg/day
same,LOAEL,[12]; [28],50 mg/kg/day
same,NOAEL,[12]; [28],10 mg/kg/day
same,LEL,[12]; [29],10 mg/kg/day
same,NEL,[12]; [29],< 10 mg/kg/day
